PMC8253220, “Molecular design, synthesis and in vitro biological evaluation of thienopyrimidine–hydroxamic acids as chimeric kinase HDAC inhibitors: a challenging approach to combat cancer” (Journal of Enzyme Inhibition and Medicinal Chemistry, 2021)
Where “and” joins values, the source holds several entries; their conditions need not be identical. Equal entries are not always repeated.

Tests used:
EGFR = EGFR (Homo sapiens, UniProt P00533); assay: In vitro EGFR tyrosine kinase inhibitory assay (Z'-LYTE, SelectScreen); format: biochemical; conditions: 10 µM single dose
EGFR, sequence (P00533 25-1210): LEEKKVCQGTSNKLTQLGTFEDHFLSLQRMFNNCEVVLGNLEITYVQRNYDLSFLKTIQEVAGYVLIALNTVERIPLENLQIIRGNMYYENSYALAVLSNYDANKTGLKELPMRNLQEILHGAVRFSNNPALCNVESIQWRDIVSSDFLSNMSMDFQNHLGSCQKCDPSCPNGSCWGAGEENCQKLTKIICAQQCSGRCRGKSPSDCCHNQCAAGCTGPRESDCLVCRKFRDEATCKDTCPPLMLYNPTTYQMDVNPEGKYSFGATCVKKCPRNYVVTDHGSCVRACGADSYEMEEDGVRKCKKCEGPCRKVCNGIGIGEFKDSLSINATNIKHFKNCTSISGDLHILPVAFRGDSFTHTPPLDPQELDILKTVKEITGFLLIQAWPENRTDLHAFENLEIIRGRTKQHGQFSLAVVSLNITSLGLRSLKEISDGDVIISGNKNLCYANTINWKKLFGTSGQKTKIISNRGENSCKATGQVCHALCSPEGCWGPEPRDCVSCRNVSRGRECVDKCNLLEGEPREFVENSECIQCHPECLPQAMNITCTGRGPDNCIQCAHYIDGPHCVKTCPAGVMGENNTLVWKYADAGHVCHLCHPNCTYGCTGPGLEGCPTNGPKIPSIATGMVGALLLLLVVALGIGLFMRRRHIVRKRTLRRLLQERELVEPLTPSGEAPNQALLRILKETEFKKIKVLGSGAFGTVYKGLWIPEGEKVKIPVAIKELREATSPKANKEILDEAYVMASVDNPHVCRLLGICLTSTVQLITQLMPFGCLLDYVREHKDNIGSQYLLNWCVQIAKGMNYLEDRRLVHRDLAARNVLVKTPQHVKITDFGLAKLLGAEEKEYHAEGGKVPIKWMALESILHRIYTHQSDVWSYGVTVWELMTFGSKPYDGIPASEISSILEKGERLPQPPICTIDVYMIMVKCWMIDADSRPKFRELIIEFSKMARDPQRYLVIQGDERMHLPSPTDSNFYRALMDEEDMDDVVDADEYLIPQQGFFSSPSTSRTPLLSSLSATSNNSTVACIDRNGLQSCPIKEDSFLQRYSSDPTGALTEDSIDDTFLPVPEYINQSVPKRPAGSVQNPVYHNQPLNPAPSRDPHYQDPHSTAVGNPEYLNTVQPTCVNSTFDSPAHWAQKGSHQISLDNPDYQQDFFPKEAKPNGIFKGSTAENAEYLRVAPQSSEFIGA
Procedure, shortened: (§1)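 Z'-LYTE fluorescence coupled-enzyme format, read-out based on differential protease cleavage of phosphorylated vs non-phosphorylated peptide. Compounds screened at 10 µM single dose for % inhibition, then selected ones tested at 0.1 nM–10 µM for IC50 by curve fitting.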

VEGFR-2 = VEGFR-2 (Homo sapiens, UniProt P35968); assay: In vitro VEGFR-2 tyrosine kinase inhibitory assay (Z'-LYTE, SelectScreen); format: biochemical; conditions: 10 µM single dose
VEGFR-2, sequence (P35968 20-1356): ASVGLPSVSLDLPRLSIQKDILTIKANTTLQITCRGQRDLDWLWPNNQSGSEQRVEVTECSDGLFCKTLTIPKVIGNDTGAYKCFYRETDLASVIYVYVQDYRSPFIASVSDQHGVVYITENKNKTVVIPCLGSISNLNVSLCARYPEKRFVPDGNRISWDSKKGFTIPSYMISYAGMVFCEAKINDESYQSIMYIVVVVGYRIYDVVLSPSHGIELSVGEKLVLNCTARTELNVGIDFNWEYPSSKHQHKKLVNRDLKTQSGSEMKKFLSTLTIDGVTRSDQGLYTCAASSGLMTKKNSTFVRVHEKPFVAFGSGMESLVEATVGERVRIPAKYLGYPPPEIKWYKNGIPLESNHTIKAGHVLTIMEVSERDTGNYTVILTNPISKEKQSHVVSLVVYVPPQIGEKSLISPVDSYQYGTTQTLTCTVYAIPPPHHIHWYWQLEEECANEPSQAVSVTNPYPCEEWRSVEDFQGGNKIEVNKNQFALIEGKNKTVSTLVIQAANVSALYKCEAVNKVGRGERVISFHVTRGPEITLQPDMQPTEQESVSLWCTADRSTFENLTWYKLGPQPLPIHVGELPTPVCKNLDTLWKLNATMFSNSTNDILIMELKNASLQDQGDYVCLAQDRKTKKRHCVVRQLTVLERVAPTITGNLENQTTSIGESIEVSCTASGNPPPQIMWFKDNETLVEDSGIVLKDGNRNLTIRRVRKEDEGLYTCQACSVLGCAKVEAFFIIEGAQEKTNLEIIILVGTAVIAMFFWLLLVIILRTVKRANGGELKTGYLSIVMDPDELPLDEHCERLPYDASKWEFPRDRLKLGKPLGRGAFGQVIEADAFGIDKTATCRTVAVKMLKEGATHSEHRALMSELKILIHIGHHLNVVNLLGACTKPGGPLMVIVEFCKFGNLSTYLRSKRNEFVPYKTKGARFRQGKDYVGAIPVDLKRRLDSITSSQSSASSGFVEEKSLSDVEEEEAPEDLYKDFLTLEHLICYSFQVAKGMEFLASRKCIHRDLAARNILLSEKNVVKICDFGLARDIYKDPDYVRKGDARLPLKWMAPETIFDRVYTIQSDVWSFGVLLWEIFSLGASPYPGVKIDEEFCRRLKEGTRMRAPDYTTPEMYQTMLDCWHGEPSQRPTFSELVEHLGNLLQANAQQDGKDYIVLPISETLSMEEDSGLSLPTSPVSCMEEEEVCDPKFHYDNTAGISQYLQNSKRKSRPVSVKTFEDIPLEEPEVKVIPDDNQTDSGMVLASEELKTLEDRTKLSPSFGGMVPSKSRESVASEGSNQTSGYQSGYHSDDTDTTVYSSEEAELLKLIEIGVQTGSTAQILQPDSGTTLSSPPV
Procedure, shortened: as §1

Hela nuclear extracts = assay: Hela nuclear extract HDAC inhibitor assay (BPS Bioscience); format: biochemical; conditions: 10 µM
Procedure, shortened: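 HeLa nuclear extract (20-fold diluted) was incubated with […] HDAC Substrate 3, 5 µg BSA and compound (1% DMSO final) at 37 °C for 60 min, in duplicate. After 15 min with HDAC developer at room temperature, fluorescence was read at 360/460 nm and % activity normalized to no-compound and no-extract controls.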

HCT-15 = assay: NCI one-dose screen; format: cell-based, human; conditions: Colon HCT-15, 10 µM single dose
Procedure, shortened: (§2)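 One concentration (10 μM) applied to each line of the full NCI-60 panel; percent growth compared against untreated cells.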

IGROV1 = assay: NCI one-dose screen; format: cell-based, human; conditions: Ovarian IGROV1, 10 µM single dose
Procedure, shortened: as §2

K-562 = assay: NCI one-dose screen; format: cell-based, human; conditions: Leukemia K-562, 10 µM single dose
Procedure, shortened: as §2

M14 = assay: NCI one-dose screen; format: cell-based, human; conditions: Melanoma M14, 10 µM single dose
Procedure, shortened: as §2

MDA-MB-435 = assay: NCI one-dose screen; format: cell-based, human; conditions: Melanoma MDA-MB-435, 10 µM single dose
Procedure, shortened: as §2

NCI-H23 = assay: NCI one-dose screen; format: cell-based, human; conditions: NSCLC NCI-H23, 10 µM single dose
Procedure, shortened: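 Single dose of 10 μM tested across the full NCI-60 cell panel. Values are percent growth inhibition relative to untreated control cells, following standard NCI methodology.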

SK-OV-3 = assay: NCI one-dose screen; format: cell-based, human; conditions: Ovarian SK-OV-3, 10 µM single dose
Procedure, shortened: as §2

T-47D = assay: NCI one-dose screen; format: cell-based, human; conditions: Breast T-47D, 10 µM single dose
Procedure, shortened: as §2

UACC-257 = assay: NCI one-dose screen; format: cell-based, human; conditions: Melanoma UACC-257, 10 µM single dose
Procedure, shortened: (§3)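 At 10 μM, a single concentration, compounds were evaluated for antiproliferative effect in the NCI 60-line screen, with growth expressed relative to untreated control cells.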

full NCI 60 cell panel = assay: NCI one-dose screen, whole panel statistics; format: cell-based, human; conditions: 1.00E-5 Molar; for Mean Growth Percent: mean over panel
Procedure, shortened: as §3

In the case of `COc1cccc(NC(=O)Nc2ccc(Nc3ncnc4sc(C(=O)NCCC(=O)NO)c(C)c34)cc2)c1` [Compound 11b, 1–(4-(6-((3-(hydroxyamino)-3-oxopropyl)carbamoyl)-5-methylthieno[2,3-d]pyrimidin-4-ylamino)phenyl)-3–(3-methoxyphenyl)urea], the inhibition at 10 µM (EGFR) was 5%, the inhibition at 10 µM (VEGFR-2) was 75% and the “% Inhibition Hela Nuclear Extracts” value (Hela nuclear extracts) was 4%. The “Growth Percent” value (HCT-15) was 99.0% and 99.06%, the “Growth Percent” value (IGROV1) was 104.1% and 104.14% and the “Growth Percent” value (K-562) was 115.1% and 115.17%. For the same molecule, the “Growth Percent” value (M14) was 92.9% and 92.95%, the “Growth Percent” value (MDA-MB-435) was 100.8% and 100.85% and the “Growth Percent” value (NCI-H23) was 96.6% and 96.67%. For the same molecule, the “Growth Percent” value (SK-OV-3) was 123.7% and 123.78%, the “Growth Percent” value (T-47D) was 100.1% and the “Growth Percent” value (UACC-257) was 99.1% and 99.15%. For the same molecule, the “Delta (one dose mean graph)” value (full NCI 60 cell panel) was 17.95%, the “Range (one dose mean graph)” value (full NCI 60 cell panel) was 40.74% and the “Mean Growth Percent” value (full NCI 60 cell panel) was 100.99%. For the same molecule, the melting point was 257 to 260 °C.
With `Cc1c(C(=O)NCCC(=O)NO)sc2ncnc(Nc3ccc(Cl)cc3)c12` [Compound 19c, 4–(4-chlorophenylamino)-N-(3-(hydroxyamino)-3-oxopropyl)-5-methylthieno[2,3-d]pyrimidine-6-carboxamide] the inhibition at 10 µM (EGFR) was 78%, the inhibition at 10 µM (VEGFR-2) was 21% and the “% Inhibition Hela Nuclear Extracts” value (Hela nuclear extracts) was 7%. For the same molecule, the “Growth Percent” value (HCT-15) was 99.7% and 99.76%, the “Growth Percent” value (IGROV1) was 105.4% and 105.45% and the “Growth Percent” value (K-562) was 106.4% and 106.41%. The “Growth Percent” value (M14) was 107.9% and 107.96%, the “Growth Percent” value (MDA-MB-435) was 102.9% and 102.91% and the “Growth Percent” value (NCI-H23) was 102.7%. The “Growth Percent” value (SK-OV-3) was 120.6% and 120.62%, the “Growth Percent” value (T-47D) was 106.95% and the “Growth Percent” value (UACC-257) was 115.4%. The “Delta (one dose mean graph)” value (full NCI 60 cell panel) was 24.83%, the “Range (one dose mean graph)” value (full NCI 60 cell panel) was 44.72% and the “Mean Growth Percent” value (full NCI 60 cell panel) was 104.82%. The melting point was 282 °C.
With `Cc1c(C(=O)NO)sc2ncnc(Nc3cccc4[nH]cnc34)c12` [Compound 15a, 4-(1H-benzo[d]imidazol-4-ylamino)-N-hydroxy-5-methylthieno[2,3-d]pyrimidine-6-carboxamide] the inhibition at 10 µM (EGFR) was 45%, the inhibition at 10 µM (VEGFR-2) was 36% and the “% Inhibition Hela Nuclear Extracts” value (Hela nuclear extracts) was 3%. For the same molecule, the “Growth Percent” value (HCT-15) was 102.15%, the “Growth Percent” value (IGROV1) was 97.9% and 97.91% and the “Growth Percent” value (K-562) was 101.00%. For the same molecule, the “Growth Percent” value (M14) was 106.5% and 106.58%, the “Growth Percent” value (MDA-MB-435) was 101.5% and 101.54% and the “Growth Percent” value (NCI-H23) was 92.2% and 92.27%. The “Growth Percent” value (SK-OV-3) was 124.5% and 124.53%, the “Growth Percent” value (T-47D) was 108.3% and 108.35% and the “Growth Percent” value (UACC-257) was 112.4% and 112.47%. For the same molecule, the “Delta (one dose mean graph)” value (full NCI 60 cell panel) was 22.48%, the “Range (one dose mean graph)” value (full NCI 60 cell panel) was 43.89% and the “Mean Growth Percent” value (full NCI 60 cell panel) was 103.12%. For the same molecule, the melting point was 280 °C.
For `COc1cccc(NC(=O)Nc2ccc(Nc3ncnc4sc(C(=O)NCCCC(=O)NO)c(C)c34)cc2)c1` [Compound 12b, 1–(4-(6-((4-(hydroxyamino)-4-oxobutyl)carbamoyl)-5-methylthieno[2,3-d]pyrimidin-4-ylamino)phenyl)-3–(3-methoxyphenyl)urea], the inhibition at 10 µM (EGFR) was 5%, the inhibition at 10 µM (VEGFR-2) was 83% and the “% Inhibition Hela Nuclear Extracts” value (Hela nuclear extracts) was 3%. The “Growth Percent” value (HCT-15) was 99.6% and 99.68%, the “Growth Percent” value (IGROV1) was 97.0% and 97.08% and the “Growth Percent” value (K-562) was 101.6% and 101.69%. For the same molecule, the “Growth Percent” value (M14) was 104.0% and 104.04%, the “Growth Percent” value (MDA-MB-435) was 100.9% and the “Growth Percent” value (NCI-H23) was 97.5% and 97.53%. For the same molecule, the “Growth Percent” value (SK-OV-3) was 114.7% and 114.77%, the “Growth Percent” value (T-47D) was 97.6% and 97.69% and the “Growth Percent” value (UACC-257) was 104.3% and 104.35%. The “Delta (one dose mean graph)” value (full NCI 60 cell panel) was 18.34%, the “Range (one dose mean graph)” value (full NCI 60 cell panel) was 33.01% and the “Mean Growth Percent” value (full NCI 60 cell panel) was 100.10%. It also gave a melting point of 231 to 233 °C.
With `Cc1c(C(=O)NO)sc2ncnc(Nc3ccc(NC(=O)Nc4ccccc4)cc3)c12` [Compound 7a, 1–(4-(6-(hydroxycarbamoyl)-5-methylthieno[2,3-d]pyrimidin-4-ylamino)phenyl)-3-phenylurea] the inhibition at 10 µM (EGFR) was 48%, the inhibition at 10 µM (VEGFR-2) was 89% and the “% Inhibition Hela Nuclear Extracts” value (Hela nuclear extracts) was 2%. For the same molecule, the “Growth Percent” value (HCT-15) was 99.1% and 99.16%, the “Growth Percent” value (IGROV1) was 103.6% and 103.69% and the “Growth Percent” value (K-562) was 105.9% and 105.92%. The “Growth Percent” value (M14) was 95.1% and 95.18%, the “Growth Percent” value (MDA-MB-435) was 102.0% and 102.09% and the “Growth Percent” value (NCI-H23) was 101.19%. The “Growth Percent” value (SK-OV-3) was 122.7% and 122.74%, the “Growth Percent” value (T-47D) was 95.7% and 95.72% and the “Growth Percent” value (UACC-257) was 115.5% and 115.56%. The “Delta (one dose mean graph)” value (full NCI 60 cell panel) was 24.69%, the “Range (one dose mean graph)” value (full NCI 60 cell panel) was 48.09% and the “Mean Growth Percent” value (full NCI 60 cell panel) was 99.34%. For the same molecule, the melting point was > 200 °C.
With `Cc1c(C(=O)NCCC(=O)NO)sc2ncnc(Nc3ccc(NC(=O)Nc4cccc(C(F)(F)F)c4)cc3)c12` [Compound 11c, 1–(4-(6-((3-(hydroxyamino)-3-oxopropyl)carbamoyl)-5-methylthieno[2,3-d]pyrimidin-4-ylamino)phenyl)-3–(3-(trifluoromethyl)phenyl)urea] the inhibition at 10 µM (EGFR) was 11%, the inhibition at 10 µM (VEGFR-2) was 91% and the “% Inhibition Hela Nuclear Extracts” value (Hela nuclear extracts) was 5%. For the same molecule, the “Growth Percent” value (HCT-15) was 101.2% and 101.22%, the “Growth Percent” value (IGROV1) was 102.2% and 102.29% and the “Growth Percent” value (K-562) was 103.6% and 103.67%. The “Growth Percent” value (M14) was 107.0% and 107.01%, the “Growth Percent” value (MDA-MB-435) was 103.1% and 103.18% and the “Growth Percent” value (NCI-H23) was 100.0% and 100.01%. The “Growth Percent” value (SK-OV-3) was 115.3% and 115.32%, the “Growth Percent” value (T-47D) was 101.4% and 101.45% and the “Growth Percent” value (UACC-257) was 108.3% and 108.33%. The “Delta (one dose mean graph)” value (full NCI 60 cell panel) was 23.75%, the “Range (one dose mean graph)” value (full NCI 60 cell panel) was 61.62% and the “Mean Growth Percent” value (full NCI 60 cell panel) was 102.55%. For the same molecule, the melting point was 281 °C.
